Values quoted from earlier work in article PMC10801393 (Clinical and Translational Science, 2024).
Like-named read-outs stand apart in the source and are kept apart here.

Tests used:
[1] = not given; remark: listed apart in the source
[2] = tamoxifen 20 mg/day

For `CC(C)(C(=O)O)c1ccc(C(O)CCCN2CCC(C(O)(c3ccccc3)c3ccccc3)CC2)cc1` (centres unmarked) [fexofenadine, Fexofenadine], the BDDCS class is listed as “class 3”.

In the case of `Cc1ncc2n1-c1ccc(Cl)cc1C(c1ccccc1F)=NC2` [midazolam], the “oral clearance geometric mean” value ([1]; postmenopausal group) is listed as 24.10 mL/min/kg and the “oral clearance geometric mean” value ([1]; premenopausal group) is listed as 30.09 mL/min/kg.

In the case of `CC/C(=C(\c1ccccc1)c1ccc(OCCN(C)C)cc1)c1ccccc1` [tamoxifen, Tamoxifen], the “steady‐state plasma concentration (C ss)” value ([2]; postmenopausal patients) is given as 201.23 ng/mL and the “steady‐state plasma concentration (C ss)” value ([2]; premenopausal patients) is given as 116.95 ng/mL.
